Article PMC10590419, “Structural and mechanistic insights into the inhibition of respiratory syncytial virus polymerase by a non-nucleoside inhibitor” (Communications Biology, 2023)
Like-named read-outs stand apart in the source and are kept apart here.

Target: recombinant RSV L+P (Human respiratory syncytial virus A, UniProt P28887)
Assay: Primed single nucleotide incorporation (SNI) gel assay, recombinant RSV L+P
Type: biochemical, Human RSV (strain A2)
Method: RNA polymerase reaction samples consisted of 0.2 μM recombinant RSV L-P polymerase, 0.2 μM of an RNA template (Le11 or Tr14), and 400 μM of a short primer (sequences as indicated in the figures), mixed in a buffer containing 50 mM Tris pH 7.4, 2 mM dithiothreitol and 6 mM MgCl2. For the assay in Fig. 1d, reactions were started by adding 100 nM [α-^32P]GTP (3000 Ci/mmol) tracer and incubated at 30 °C for 10 min. […] Reactions were stopped by adding an equal volume of gel loading buffer containing 90% formamide, 50 mM EDTA, 0.05% Xylene Cyanol, and Bromophenol Blue. Samples were denatured at 95 °C for 5 min and run on a 22.5% polyacrylamide urea sequencing gel at 80 W. The gel was transferred onto a Whatman cellulose chromatography paper (Millipore Sigma) and dried on a gel dryer (Bio-Rad) for 1 h. The dried gel was exposed to a phosphor-screen, scanned on a Typhoon phosphorimager (GE Healthcare), and quantified using ImageQuant (GE Healthcare).

[1] = 5 µM, le-11, +1 site, replicates, 5 µM
[2] = 5 µM, le-11, +3 site, replicates, 5 µM
[3] = 5 µM, tr-14, +1 site, replicates, 5 µM
[4] = le-11, +1 site, 0.00390625 uM, replicates, 0.00390625 µM
[5] = le-11, +1 site, 0.0078125 uM, replicates, 0.0078125 µM
[6] = le-11, +1 site, 0.015625 uM, replicates, 0.015625 µM
[7] = le-11, +1 site, 0.03125 uM, replicates, 0.03125 µM
[8] = le-11, +1 site, 0.0625 uM, replicates, 0.0625 µM
[9] = le-11, +1 site, 0.125 uM, replicates, 0.125 µM
[10] = le-11, +1 site, 0.25 uM, replicates, 0.25 µM
[11] = le-11, +1 site, 0.5 uM, replicates, 0.5 µM

recombinant RSV L+P, sequence (P28887 whole entry): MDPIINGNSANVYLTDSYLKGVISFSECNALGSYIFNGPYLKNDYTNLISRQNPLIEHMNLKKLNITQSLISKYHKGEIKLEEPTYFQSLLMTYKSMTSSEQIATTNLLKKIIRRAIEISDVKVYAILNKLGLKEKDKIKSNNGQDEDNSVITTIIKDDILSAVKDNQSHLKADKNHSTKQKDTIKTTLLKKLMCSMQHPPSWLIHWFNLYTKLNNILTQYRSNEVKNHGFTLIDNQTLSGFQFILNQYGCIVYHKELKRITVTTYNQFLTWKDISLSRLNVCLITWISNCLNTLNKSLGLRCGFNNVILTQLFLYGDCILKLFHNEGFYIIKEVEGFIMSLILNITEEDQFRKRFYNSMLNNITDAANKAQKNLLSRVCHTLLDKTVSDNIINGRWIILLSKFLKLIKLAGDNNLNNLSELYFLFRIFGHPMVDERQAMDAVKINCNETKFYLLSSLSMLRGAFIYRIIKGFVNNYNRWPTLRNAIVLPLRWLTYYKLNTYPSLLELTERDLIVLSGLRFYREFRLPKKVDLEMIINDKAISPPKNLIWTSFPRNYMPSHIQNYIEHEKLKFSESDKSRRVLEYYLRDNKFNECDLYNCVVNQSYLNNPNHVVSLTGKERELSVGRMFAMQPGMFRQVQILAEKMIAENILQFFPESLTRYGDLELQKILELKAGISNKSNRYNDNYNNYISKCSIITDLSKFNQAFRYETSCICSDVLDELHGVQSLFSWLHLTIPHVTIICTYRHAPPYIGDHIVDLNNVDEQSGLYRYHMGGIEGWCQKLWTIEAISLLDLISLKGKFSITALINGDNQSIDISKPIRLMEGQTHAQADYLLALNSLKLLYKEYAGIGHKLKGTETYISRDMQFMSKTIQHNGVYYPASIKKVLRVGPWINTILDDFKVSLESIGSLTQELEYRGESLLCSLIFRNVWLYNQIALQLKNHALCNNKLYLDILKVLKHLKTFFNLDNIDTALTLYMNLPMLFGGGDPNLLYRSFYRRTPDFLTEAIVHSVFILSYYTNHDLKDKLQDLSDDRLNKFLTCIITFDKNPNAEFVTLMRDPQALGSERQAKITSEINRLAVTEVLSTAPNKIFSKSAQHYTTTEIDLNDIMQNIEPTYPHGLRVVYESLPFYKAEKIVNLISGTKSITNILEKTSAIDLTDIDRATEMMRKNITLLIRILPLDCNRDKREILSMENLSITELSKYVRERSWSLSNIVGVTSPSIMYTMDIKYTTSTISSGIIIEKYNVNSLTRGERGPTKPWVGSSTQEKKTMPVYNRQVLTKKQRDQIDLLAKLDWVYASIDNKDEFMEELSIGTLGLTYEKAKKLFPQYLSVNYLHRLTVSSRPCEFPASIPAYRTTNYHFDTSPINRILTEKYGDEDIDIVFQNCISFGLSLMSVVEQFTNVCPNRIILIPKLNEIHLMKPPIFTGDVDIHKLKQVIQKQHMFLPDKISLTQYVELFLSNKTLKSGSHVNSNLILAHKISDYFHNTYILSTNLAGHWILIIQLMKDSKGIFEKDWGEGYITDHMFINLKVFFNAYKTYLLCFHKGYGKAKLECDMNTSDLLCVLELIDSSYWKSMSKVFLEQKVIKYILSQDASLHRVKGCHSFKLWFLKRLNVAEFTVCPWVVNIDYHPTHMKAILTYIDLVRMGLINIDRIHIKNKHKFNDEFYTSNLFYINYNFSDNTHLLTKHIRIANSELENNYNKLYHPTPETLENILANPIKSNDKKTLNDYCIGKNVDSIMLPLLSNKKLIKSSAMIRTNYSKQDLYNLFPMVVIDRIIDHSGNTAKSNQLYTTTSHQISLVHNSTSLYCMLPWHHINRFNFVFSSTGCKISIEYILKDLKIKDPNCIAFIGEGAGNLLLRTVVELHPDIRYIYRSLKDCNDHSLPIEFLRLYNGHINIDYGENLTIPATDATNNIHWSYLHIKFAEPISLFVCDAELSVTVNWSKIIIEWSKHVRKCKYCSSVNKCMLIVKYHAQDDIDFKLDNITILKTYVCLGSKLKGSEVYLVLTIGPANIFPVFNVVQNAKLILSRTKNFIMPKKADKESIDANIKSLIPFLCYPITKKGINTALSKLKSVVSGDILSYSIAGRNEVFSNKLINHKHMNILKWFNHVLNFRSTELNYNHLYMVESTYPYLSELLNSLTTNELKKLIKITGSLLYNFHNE
recombinant RSV L+P, sequence (P03421 whole entry, further chain): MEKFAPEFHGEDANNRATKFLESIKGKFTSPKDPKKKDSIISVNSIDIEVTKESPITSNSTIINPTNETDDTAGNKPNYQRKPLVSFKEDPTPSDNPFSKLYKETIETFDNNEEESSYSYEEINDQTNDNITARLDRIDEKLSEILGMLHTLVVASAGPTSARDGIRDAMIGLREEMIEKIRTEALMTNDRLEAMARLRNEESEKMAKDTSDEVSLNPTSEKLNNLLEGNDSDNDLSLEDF

Structure (SMILES): COc1cc(C(=O)NC[C@](O)(c2cc(C(C)(C)O)c(F)c(-c3ccc(F)cc3)n2)C(F)(F)F)cc2cc(C)nnc12 [JNJ-8003]
- inhibition at 5 µM (5 µM, le-11, +1 site, N 2, read-out: % inhibition of SNI, AC>ACG, average): 88.8%
- inhibition at 5 µM (5 µM, le-11, +1 site, N 2, read-out: % inhibition of SNI, ACG>ACGC, average): 2.75%
- inhibition at 5 µM (5 µM, le-11, +1 site, N 2, read-out: % inhibition of SNI, ACGC>ACGCG, average): 94.8%
- inhibition at 5 µM (5 µM, le-11, +1 site, N 2, read-out: % inhibition of SNI, ACGCG>ACGCGA, average): 96.9%
- inhibition at 5 µM (5 µM, le-11, +1 site, N 2, read-out: % inhibition of SNI, ACGCGA>ACGCGAA, average): 85.3%
- % inhibition of SNI, AC>ACG [1]: 88.48%
- % inhibition of SNI, ACGC>ACGCG [1]: 96.78%
- % inhibition of SNI, ACGCG>ACGCGA [1]: 98.45%
- % inhibition of SNI, ACGCGA>ACGCGAA [1]: 88.02%
- inhibition at 5 µM (5 µM, le-11, +1 site, replicates, read-out: % inhibition of SNI, AC>ACG): 89%
- inhibition at 5 µM (5 µM, le-11, +1 site, replicates, read-out: % inhibition of SNI, ACGC>ACGCG): 92.7%
- inhibition at 5 µM (5 µM, le-11, +1 site, replicates, read-out: % inhibition of SNI, ACGCG>ACGCGA): 95.4%
- inhibition at 5 µM (5 µM, le-11, +1 site, replicates, read-out: % inhibition of SNI, ACGCGA>ACGCGAA): 82.6%
- inhibition at 5 µM (5 µM, le-11, +3 site, N 2, read-out: % inhibition of SNI, GC>GCG, average): 96.5%
- inhibition at 5 µM (5 µM, le-11, +3 site, N 2, read-out: % inhibition of SNI, GCG>GCGA, average): 74.8%
- inhibition at 5 µM (5 µM, le-11, +3 site, N 2, read-out: % inhibition of SNI, GCGA>GCGAA, average): 97.6%
- inhibition at 5 µM (5 µM, le-11, +3 site, N 2, read-out: % inhibition of SNI, GCGAA>GCGAAA, average): 93.8%
- % inhibition of SNI, GC>GCG [2]: 97.71%
- % inhibition of SNI, GCG>GCGA [2]: 79.85%
- % inhibition of SNI, GCGA>GCGAA [2]: 98.25%
- % inhibition of SNI, GCGAA>GCGAAA [2]: 91.04%
- inhibition at 5 µM (5 µM, le-11, +3 site, replicates, read-out: % inhibition of SNI, GC>GCG): 95.3%
- inhibition at 5 µM (5 µM, le-11, +3 site, replicates, read-out: % inhibition of SNI, GCG>GCGA): 69.8%
- inhibition at 5 µM (5 µM, le-11, +3 site, replicates, read-out: % inhibition of SNI, GCGA>GCGAA): 97%
- inhibition at 5 µM (5 µM, le-11, +3 site, replicates, read-out: % inhibition of SNI, GCGAA>GCGAAA): 96.5%
- inhibition at 5 µM (5 µM, tr-14, +1 site, N 2, read-out: % inhibition of SNI, AC>ACG, average): 88.2%
- inhibition at 5 µM (5 µM, tr-14, +1 site, N 2, read-out: % inhibition of SNI, ACG>ACGA, average): 8.03%
- inhibition at 5 µM (5 µM, tr-14, +1 site, N 2, read-out: % inhibition of SNI, ACGA>ACGAG, average): 95%
- inhibition at 5 µM (5 µM, tr-14, +1 site, N 2, read-out: % inhibition of SNI, ACGAG>ACGAGA, average): 88.8%
- inhibition at 5 µM (5 µM, tr-14, +1 site, N 2, read-out: % inhibition of SNI, ACGAGA>ACGAGAA, average): 90%
- % inhibition of SNI, AC>ACG [3]: 84.25%
- % inhibition of SNI, ACGA>ACGAG [3]: 93.02%
- % inhibition of SNI, ACGAG>ACGAGA [3]: 89.36%
- % inhibition of SNI, ACGAGA>ACGAGAA [3]: 89.66%
- inhibition at 5 µM (5 µM, tr-14, +1 site, replicates, read-out: % inhibition of SNI, AC>ACG): 92.2%
- inhibition at 5 µM (5 µM, tr-14, +1 site, replicates, read-out: % inhibition of SNI, ACGA>ACGAG): 96.9%
- inhibition at 5 µM (5 µM, tr-14, +1 site, replicates, read-out: % inhibition of SNI, ACGAG>ACGAGA): 88.2%
- inhibition at 5 µM (5 µM, tr-14, +1 site, replicates, read-out: % inhibition of SNI, ACGAGA>ACGAGAA): 90.3%
- SNI to the 3-mer primer from the +1 site (in words) (le and tr promoter RNA): did not inhibit
- pACG formation, % inhibition [4]: 21.7616%
- pACGCG formation, % inhibition [4]: 22.5312%
- inhibition at 0.00390625 µM (le-11, +1 site, 0.00390625 uM, replicates, read-out: pACG formation, % inhibition): 15.7%
- inhibition at 0.00390625 µM (le-11, +1 site, 0.00390625 uM, replicates, read-out: pACGC formation, % inhibition): 22.3%
- inhibition at 0.00390625 µM (le-11, +1 site, 0.00390625 uM, replicates, read-out: pACGCG formation, % inhibition): 29.7%
- pACG formation, % inhibition [5]: 22.0299%
- pACGCG formation, % inhibition [5]: 31.4378%
- inhibition at 0.0078125 µM (le-11, +1 site, 0.0078125 uM, replicates, read-out: pACG formation, % inhibition): 27.9%
- inhibition at 0.0078125 µM (le-11, +1 site, 0.0078125 uM, replicates, read-out: pACGC formation, % inhibition): 23.6%
- inhibition at 0.0078125 µM (le-11, +1 site, 0.0078125 uM, replicates, read-out: pACGCG formation, % inhibition): 35.9%
- pACG formation, % inhibition [6]: 38.1202%
- pACGCG formation, % inhibition [6]: 40.5036%
- inhibition at 0.015625 µM (le-11, +1 site, 0.015625 uM, replicates, read-out: pACG formation, % inhibition): 38.1%
- inhibition at 0.015625 µM (le-11, +1 site, 0.015625 uM, replicates, read-out: pACGC formation, % inhibition): 28%
- inhibition at 0.015625 µM (le-11, +1 site, 0.015625 uM, replicates, read-out: pACGCG formation, % inhibition): 35%
- pACG formation, % inhibition [7]: 56.5591%
- pACGCG formation, % inhibition [7]: 63.5179%
- inhibition at 0.03125 µM (le-11, +1 site, 0.03125 uM, replicates, read-out: pACG formation, % inhibition): 61.9%
- inhibition at 0.03125 µM (le-11, +1 site, 0.03125 uM, replicates, read-out: pACGC formation, % inhibition): 28.5%
- inhibition at 0.03125 µM (le-11, +1 site, 0.03125 uM, replicates, read-out: pACGCG formation, % inhibition): 63.6%
- pACG formation, % inhibition [8]: 90.7902%
- pACGCG formation, % inhibition [8]: 93.3045%
- inhibition at 0.0625 µM (le-11, +1 site, 0.0625 uM, replicates, read-out: pACG formation, % inhibition): 93.3%
- inhibition at 0.0625 µM (le-11, +1 site, 0.0625 uM, replicates, read-out: pACGC formation, % inhibition): 29.3%
- inhibition at 0.0625 µM (le-11, +1 site, 0.0625 uM, replicates, read-out: pACGCG formation, % inhibition): 92.5%
- pACG formation, % inhibition [9]: 92.6859%
- pACGCG formation, % inhibition [9]: 94.8621%
- inhibition at 0.125 µM (le-11, +1 site, 0.125 uM, replicates, read-out: pACG formation, % inhibition): 94.3%
- inhibition at 0.125 µM (le-11, +1 site, 0.125 uM, replicates, read-out: pACGC formation, % inhibition): 30.8%
- inhibition at 0.125 µM (le-11, +1 site, 0.125 uM, replicates, read-out: pACGCG formation, % inhibition): 94.8%
- pACG formation, % inhibition [10]: 91.0112%
- pACGCG formation, % inhibition [10]: 93.3897%
- inhibition at 0.25 µM (le-11, +1 site, 0.25 uM, replicates, read-out: pACG formation, % inhibition): 94.2%
- inhibition at 0.25 µM (le-11, +1 site, 0.25 uM, replicates, read-out: pACGC formation, % inhibition): 17.7%
- inhibition at 0.25 µM (le-11, +1 site, 0.25 uM, replicates, read-out: pACGCG formation, % inhibition): 95.2%
- pACG formation, % inhibition [11]: 89.7151%
- pACGCG formation, % inhibition [11]: 94.5159%
